Tested on: 624824-186-R-J2-PDC multicell spheroids, viability
Assay: Anticancer human tumor 624824-186-R-J2-PDC patient-derived colon adenocarcinoma cell line growth inhibition [PI3K]
Conditions: for viability, T/C: stronger effect = lower value
Method in brief: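 Tumor cells were combined with HUVEC and MSCs into spheroids, then dosed with PI3K-inhibitor combinations over half-log ranges capped near clinical Cmax or 10 microM.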

[1] = curve of first compound, second compound 0.0316 µM
[2] = curve of first compound, second compound 0.1 µM
[3] = curve of first compound, second compound 0.316 µM
[4] = curve of first compound, second compound 1 µM
[5] = second compound 0.0316 µM, first compound 0.0316 µM
[6] = second compound 0.0316 µM, first compound 0.1 µM
[7] = second compound 0.0316 µM, first compound 0.316 µM
[8] = second compound 0.0316 µM, first compound 1 µM
[9] = second compound 0.0316 µM, first compound 3.16 µM
[10] = second compound 0.0316 µM, first compound 10 µM
[11] = second compound 0.1 µM, first compound 0.0316 µM
[12] = second compound 0.1 µM, first compound 0.1 µM
[13] = second compound 0.1 µM, first compound 0.316 µM
[14] = second compound 0.1 µM, first compound 1 µM
[15] = second compound 0.1 µM, first compound 3.16 µM
[16] = second compound 0.1 µM, first compound 10 µM
[17] = second compound 0.316 µM, first compound 0.0316 µM
[18] = second compound 0.316 µM, first compound 0.1 µM
[19] = second compound 0.316 µM, first compound 0.316 µM
[20] = second compound 0.316 µM, first compound 1 µM
[21] = second compound 0.316 µM, first compound 3.16 µM
[22] = second compound 0.316 µM, first compound 10 µM
[23] = second compound 1 µM, first compound 0.0316 µM
[24] = second compound 1 µM, first compound 0.1 µM
[25] = second compound 1 µM, first compound 0.316 µM
[26] = second compound 1 µM, first compound 1 µM
[27] = second compound 1 µM, first compound 3.16 µM
[28] = second compound 1 µM, first compound 10 µM
[29] = curve of first compound, second compound 0.00316 µM
[30] = curve of first compound, second compound 0.01 µM
[31] = second compound 0.00316 µM, first compound 0.0316 µM
[32] = second compound 0.00316 µM, first compound 0.1 µM
[33] = second compound 0.00316 µM, first compound 0.316 µM
[34] = second compound 0.00316 µM, first compound 1 µM
[35] = second compound 0.00316 µM, first compound 3.16 µM
[36] = second compound 0.00316 µM, first compound 10 µM
[37] = second compound 0.01 µM, first compound 0.0316 µM
[38] = second compound 0.01 µM, first compound 0.1 µM
[39] = second compound 0.01 µM, first compound 0.316 µM
[40] = second compound 0.01 µM, first compound 1 µM
[41] = second compound 0.01 µM, first compound 3.16 µM
[42] = second compound 0.01 µM, first compound 10 µM
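Also: spheroids exposed to agents for 7 days before viability read.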
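For viability, T/C in this document: 100% = DMSO vehicle treated spheroids.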

C#Cc1c(F)ccc2cc(O)cc(-c3ncc4c(N5CC6CCC(C5)N6)nc(OCC56CCCN5CC(F)C6)nc4c3F)c12 (centres undefined) + CC(Nc1ncnc2nc[nH]c12)c1cc2cccc(Cl)c2c(=O)n1-c1ccccc1
IC50 [1]: > 10000 nM | IC50 [2]: > 10000 nM | IC50 [3]: > 10000 nM | IC50 [4]: > 10000 nM | IC50 (curve of first compound, second compound 3.16 µM): > 10000 nM | IC50 (curve of first compound, second compound 10 µM): > 10000 nM | viability, T/C [5]: 81.5% | viability, T/C [6]: 80% | viability, T/C [7]: 106% | viability, T/C [8]: 73.1% | viability, T/C [9]: 93.2% | viability, T/C [10]: 59.5% | viability, T/C [11]: 83.8% | viability, T/C [12]: 78.7% | viability, T/C [13]: 76% | viability, T/C [14]: 74.1% | viability, T/C [15]: 77.9% | viability, T/C [16]: 67.7% | viability, T/C [17]: 78.9% | viability, T/C [18]: 93.6% | viability, T/C [19]: 93.8% | viability, T/C [20]: 82.5% | viability, T/C [21]: 64.5% | viability, T/C [22]: 71.9% | viability, T/C [23]: 73% | viability, T/C [24]: 72.8% | viability, T/C [25]: 81% | viability, T/C [26]: 76.6% | viability, T/C [27]: 86.3% | viability, T/C [28]: 75.5% | viability, T/C (second compound 3.16 µM, first compound 0.0316 µM): 78.8% | viability, T/C (second compound 3.16 µM, first compound 0.1 µM): 97.9% | viability, T/C (second compound 3.16 µM, first compound 0.316 µM): 74.7% | viability, T/C (second compound 3.16 µM, first compound 1 µM): 84.3% | viability, T/C (second compound 3.16 µM, first compound 3.16 µM): 94.6% | viability, T/C (second compound 3.16 µM, first compound 10 µM): 70.2% | viability, T/C (second compound 10 µM, first compound 0.0316 µM): 87.4% | viability, T/C (second compound 10 µM, first compound 0.1 µM): 83.2% | viability, T/C (second compound 10 µM, first compound 0.316 µM): 91.4% | viability, T/C (second compound 10 µM, first compound 1 µM): 102% | viability, T/C (second compound 10 µM, first compound 3.16 µM): 98% | viability, T/C (second compound 10 µM, first compound 10 µM): 89.4%

C[C@@H](NC(=O)c1ncnc(N)c1Cl)c1ncc(C(=O)Nc2cc(C(F)(F)F)c(Cl)cn2)s1 + COc1c(OCCCN2CCOCC2)ccc2c3n(c(=NC(=O)c4cnc(N)nc4)nc12)CCN3
IC50 [29]: > 10000 nM | IC50 [30]: > 10000 nM | IC50 [1]: > 10000 nM | IC50 [2]: 1020 nM | IC50 [3]: 505 nM | IC50 [4]: 511 nM | viability, T/C [31]: 106% | viability, T/C [32]: 112% | viability, T/C [33]: 93.5% | viability, T/C [34]: 84.4% | viability, T/C [35]: 62.2% | viability, T/C [36]: 65.2% | viability, T/C [37]: 95.5% | viability, T/C [38]: 119% | viability, T/C [39]: 106% | viability, T/C [40]: 70.1% | viability, T/C [41]: 61.6% | viability, T/C [42]: 62.6% | viability, T/C [5]: 91.3% | viability, T/C [6]: 93% | viability, T/C [7]: 88.9% | viability, T/C [8]: 63.9% | viability, T/C [9]: 63.4% | viability, T/C [10]: 48% | viability, T/C [11]: 88.7% | viability, T/C [12]: 73.9% | viability, T/C [13]: 64.6% | viability, T/C [14]: 50.2% | viability, T/C [15]: 38.7% | viability, T/C [16]: 33.1% | viability, T/C [17]: 77.2% | viability, T/C [18]: 59.9% | viability, T/C [19]: 55.7% | viability, T/C [20]: 46.4% | viability, T/C [21]: 33.8% | viability, T/C [22]: 28.9% | viability, T/C [23]: 62.4% | viability, T/C [24]: 63.4% | viability, T/C [25]: 52.1% | viability, T/C [26]: 42.5% | viability, T/C [27]: 39.2% | viability, T/C [28]: 26.1%

CCN1CCN(Cc2ccc(Nc3ncc(F)c(-c4cc(F)c5nc(C)n(C(C)C)c5c4)n3)nc2)CC1
viability, T/C (compound 0.0316 µM): 86.1% [middle of 4 runs] | viability, T/C (compound 0.1 µM): 93.7% [middle of 4 runs] | viability, T/C (compound 0.316 µM): 93.5% [middle of 4 runs] | viability, T/C (compound 1 µM): 102% [middle of 4 runs] | IC50 (curve of compound): > 1000 nM

CC1(C)CCC(Nc2ncc(C(F)(F)F)c(-c3c[nH]c4c(P(C)(C)=O)c(C#N)ccc34)n2)CN1 (centres undefined) + COc1c(OCCCN2CCOCC2)ccc2c3n(c(=NC(=O)c4cnc(N)nc4)nc12)CCN3
IC50 [29]: 3500 nM | IC50 [30]: 3480 nM | IC50 [1]: 2230 nM | IC50 [2]: 1450 nM | IC50 [3]: 280 nM | IC50 [4]: < 31.6 nM | viability, T/C [31]: 78.3% | viability, T/C [32]: 104% | viability, T/C [33]: 92.2% | viability, T/C [34]: 89.3% | viability, T/C [35]: 54.4% | viability, T/C [36]: 4.77% | viability, T/C [37]: 73.5% | viability, T/C [38]: 76.8% | viability, T/C [39]: 94.8% | viability, T/C [40]: 83.1% | viability, T/C [41]: 54.2% | viability, T/C [42]: 4.78% | viability, T/C [5]: 82.5% | viability, T/C [6]: 75.9% | viability, T/C [7]: 71.5% | viability, T/C [8]: 61.7% | viability, T/C [9]: 46.9% | viability, T/C [10]: 3.67% | viability, T/C [11]: 63.6% | viability, T/C [12]: 56.9% | viability, T/C [13]: 55.1% | viability, T/C [14]: 49.1% | viability, T/C [15]: 45.6% | viability, T/C [16]: 4.59% | viability, T/C [17]: 54% | viability, T/C [18]: 51.7% | viability, T/C [19]: 47.9% | viability, T/C [20]: 43.8% | viability, T/C [21]: 35.4% | viability, T/C [22]: 2.98% | viability, T/C [23]: 43% | viability, T/C [24]: 44.8% | viability, T/C [25]: 42.7% | viability, T/C [26]: 37.2% | viability, T/C [27]: 32.5% | viability, T/C [28]: 2.59%

C[C@@H](NC(=O)c1ncnc(N)c1Cl)c1ncc(C(=O)Nc2cc(C(F)(F)F)c(Cl)cn2)s1
viability, T/C (compound 1 µM): 81.6% [middle of 4 runs] | viability, T/C (compound 3.16 µM): 68% [middle of 4 runs] | IC50 (curve of compound): > 10000 nM

Source: PubChem BioAssay AID1963975 (Molecular Pharmacology Branch, DTP, NCI, 2024)
